Test systems include KM12 colon; CAKI-1 renal; HS 578T breast; SK-MEL-2 melanoma; SF-295 CNS; UO-31 renal; IGROV1 ovarian; OVCAR-5 ovarian.
Experiment in all cases: inhibition of tumour cell growth, NCI panel, 48 h

Structures are written as SMILES. Where “and” joins values, the source holds several entries; their conditions need not be identical. Equal values may be shown once.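 Assay format: 96-well plates, 48-hour exposure. GI50 is the concentration that inhibits growth by half. Definition used: TGI = concentration required for complete inhibition of growth.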 Where a SMILES comes first, the peptide text is derived from it. Bridges are numbered along the chain shown (N, C = ends).

In the case of `CCC(C)C1NC(=O)C(CC(C)C)NC(=O)C(C(C)C)NC(=O)C2CSSCC(NC1=O)C(=O)N2` (stereo not drawn) (cyclo(CCVLI); disulfide 1-2; configuration not given here), the TGI in the assay with KM12 colon was found to be 0.223 µM; with CAKI-1 renal, 5.41 µM; with HS 578T breast, 0.271 µM; with SK-MEL-2 melanoma it was 0.363 µM; in the assay with SF-295 CNS, 0.34 µM; in the assay with UO-31 renal, 5.84 µM. The TGI in the assay with IGROV1 ovarian worked out at 0.309 µM; in the assay with OVCAR-5 ovarian, 0.381 µM.

For `Cc1cc(C(=O)CC(Cl)=C(Cl)Cl)c(Cl)cc1Cl`, the GI50 with KM12 colon is 18.2 µM; in the assay on CAKI-1 renal, 18 µM; with HS 578T breast, 30.3 µM; in the assay on SK-MEL-2 melanoma it was 51.2 µM; in the assay with SF-295 CNS it was 19.9 µM; in the assay with UO-31 renal, 22.5 µM. For the same compound, the values for the GI50 in the assay on IGROV1 ovarian and in the assay with OVCAR-5 ovarian were 22 µM and 29.8 µM, respectively. Also, the TGI in the assay on KM12 colon was 42.1 µM; in the assay with CAKI-1 renal it was 41.4 µM; in the assay on HS 578T breast, 78.4 µM; with SK-MEL-2 melanoma, more than 100 µM; in the assay with SF-295 CNS, 54.8 µM; in the assay on UO-31 renal, 55.4 µM. Moreover, the TGI was determined as 82.9 µM with IGROV1 ovarian and 79.8 µM in the assay with OVCAR-5 ovarian.

In the case of `O=C(O)CC(S)C(=O)O.[Li+].[Sb]` (stereo not drawn), the GI50 in the assay on KM12 colon was more than 100 µM; in the assay with CAKI-1 renal, more than 100 µM; in the assay on HS 578T breast, more than 100 µM; in the assay on SK-MEL-2 melanoma it was 40.5 µM; in the assay on SF-295 CNS it was 55.3 µM; in the assay on UO-31 renal, more than 100 µM. Moreover, the GI50 in the assay with IGROV1 ovarian and with OVCAR-5 ovarian was more than 100 µM each time. Further, the TGI with KM12 colon, in the assay with CAKI-1 renal, with HS 578T breast, in the assay on SK-MEL-2 melanoma, with SF-295 CNS and in the assay with UO-31 renal was more than 100 µM each time. Further, the TGI in the assay on IGROV1 ovarian and in the assay with OVCAR-5 ovarian was more than 100 µM throughout.

For `Cc1cnc(-c2ccc(-c3ccc(NC(=O)Nc4cccc(C(F)(F)F)c4)cc3F)c3c2C(=O)NC3)[nH]1`, the GI50 in the assay on KM12 colon was less than 0.01 µM; in the assay on CAKI-1 renal it was 2.18 µM; in the assay on HS 578T breast, 2.46 µM; in the assay on SK-MEL-2 melanoma it was 14.9 µM; with SF-295 CNS it was 4.06 µM; with UO-31 renal, 3 µM. Besides, the GI50 in the assay on IGROV1 ovarian is 1.97 µM; with OVCAR-5 ovarian, 28.4 µM. Further, the TGI was 16.2 µM with KM12 colon; more than 44.9 µM in the assay with CAKI-1 renal; 35.4 µM in the assay on HS 578T breast; 36.8 µM in the assay with SK-MEL-2 melanoma; 33.6 µM in the assay on SF-295 CNS; more than 50.5 µM in the assay with UO-31 renal. For the same compound, the values for the TGI in the assay with IGROV1 ovarian and in the assay with OVCAR-5 ovarian were 32.2 µM and more than 59.8 µM, respectively.

Take `COc1ccc2[nH]cc(C3(c4c[nH]c5ccc(OC)cc45)C(=O)Nc4ccc(Cl)cc43)c2c1`: the GI50 was 2.52 µM with KM12 colon; 2.25 µM with CAKI-1 renal; 5.38 µM in the assay on HS 578T breast; 2.9 µM in the assay on SK-MEL-2 melanoma; 2.1 µM in the assay on SF-295 CNS; 2.27 µM in the assay with UO-31 renal. The GI50 in the assay with IGROV1 ovarian is 3.28 µM; with OVCAR-5 ovarian it was 4.08 µM. For the same compound, the TGI is 6.33 µM with KM12 colon; more than 100 µM in the assay with CAKI-1 renal; more than 100 µM in the assay on HS 578T breast; 6.67 µM in the assay on SK-MEL-2 melanoma; 6.26 µM in the assay with SF-295 CNS; more than 100 µM in the assay on UO-31 renal. In addition, the TGI was determined as 21.2 µM with IGROV1 ovarian and 43.1 µM in the assay with OVCAR-5 ovarian.

Take `COC(=O)c1cc2c([nH]c3ccccc32)c(-c2nc3ccccc3cc2CO)n1`: the GI50 in the assay with KM12 colon, in the assay on CAKI-1 renal, with HS 578T breast, in the assay on SK-MEL-2 melanoma, with SF-295 CNS and in the assay with UO-31 renal was more than 100 µM throughout. Also, the GI50 in the assay with IGROV1 ovarian and with OVCAR-5 ovarian was more than 100 µM each time. Moreover, the TGI in the assay with KM12 colon, in the assay with CAKI-1 renal, in the assay with HS 578T breast, with SK-MEL-2 melanoma, in the assay on SF-295 CNS and in the assay on UO-31 renal was more than 100 µM throughout. Besides, the TGI in the assay with IGROV1 ovarian and in the assay with OVCAR-5 ovarian was more than 100 µM throughout.

In the case of `CCCCNP1(NCCCC)=NP(NCCCC)(NCCCC)=NP(NCCCC)(NCCCC)=NP(NCCCC)(NCCCC)=N1`, the GI50 is 0.355 µM in the assay with KM12 colon; 9.3 µM in the assay on CAKI-1 renal; 1.43 µM in the assay on HS 578T breast; 0.922 µM in the assay on SK-MEL-2 melanoma; 0.905 µM in the assay with SF-295 CNS; 2.81 µM in the assay with UO-31 renal. The results for the GI50 in the assay on IGROV1 ovarian and in the assay on OVCAR-5 ovarian were 0.584 µM and 1.61 µM, respectively. In addition, the TGI in the assay with KM12 colon amounted to 4.27 µM; in the assay with CAKI-1 renal, 36 µM; with HS 578T breast it was 7.71 µM; with SK-MEL-2 melanoma, 3.51 µM; in the assay with SF-295 CNS it was 5.6 µM; in the assay on UO-31 renal, 14.4 µM. The TGI in the assay with IGROV1 ovarian amounted to 11.6 µM; in the assay with OVCAR-5 ovarian, 9.81 µM.

With `C=C1C(=O)O[C@H]2[C@H]1CC/C(CNC(=O)C(C)c1ccc(CC(C)C)cc1)=C\CC[C@@]1(C)O[C@@H]21` (stereo partly drawn), the GI50 in the assay with KM12 colon is 2.38 µM; with CAKI-1 renal, 1.69 µM; in the assay with HS 578T breast it was 2.24 µM; with SK-MEL-2 melanoma it was 1.6 µM; with SF-295 CNS, 3.45 µM; in the assay on UO-31 renal, 1.33 µM. Moreover, the GI50 with IGROV1 ovarian was 1.59 µM; in the assay on OVCAR-5 ovarian, 1.92 µM. Further, the TGI in the assay on KM12 colon turned out to be 5.65 µM; in the assay on CAKI-1 renal, 3.06 µM; in the assay on HS 578T breast it was 7.46 µM; in the assay on SK-MEL-2 melanoma, 3.18 µM; with SF-295 CNS, 14.7 µM; with UO-31 renal it was 2.6 µM. The TGI in the assay on IGROV1 ovarian worked out at 3.43 µM; in the assay on OVCAR-5 ovarian, 4.04 µM.

Consider `COc1ccc2[nH]cc(Cc3c[nH]c4ccc(OC)cc34)c2c1`, for which the GI50 with KM12 colon was 19 µM; with CAKI-1 renal, 19.9 µM; in the assay on HS 578T breast it was 15.6 µM; in the assay on SK-MEL-2 melanoma, 17.4 µM; with SF-295 CNS, 16.6 µM; in the assay on UO-31 renal, 27.5 µM. In addition, the GI50 in the assay with IGROV1 ovarian is 15.4 µM; in the assay on OVCAR-5 ovarian, 24.8 µM. Also, the TGI in the assay on KM12 colon was 41.4 µM; with CAKI-1 renal, 44.4 µM; in the assay on HS 578T breast it was 49.6 µM; with SK-MEL-2 melanoma, 43.3 µM; with SF-295 CNS it was 34.5 µM; with UO-31 renal it was more than 100 µM. In addition, the values for the TGI with IGROV1 ovarian and in the assay with OVCAR-5 ovarian were 33.1 µM and 58 µM, respectively.

As to `CC(=O)OCC1OC([S-])C(OC(C)=O)C(OC(C)=O)C1OC(C)=O.[Au+].c1ccc(CN2[CH-]N(Cc3ccccc3)C(c3ccccc3)=C2c2ccccc2)cc1`, the GI50 is 4.32 µM and 0.98 µM with KM12 colon; 0.866 µM in the assay on CAKI-1 renal; 2.62 µM and 0.396 µM with HS 578T breast; 2.77 µM and 0.656 µM in the assay on SK-MEL-2 melanoma; 1.83 µM and 0.445 µM with UO-31 renal; 1.83 µM and 0.514 µM in the assay with IGROV1 ovarian. Further, the GI50 in the assay on OVCAR-5 ovarian is 3.35 µM and 0.783 µM. The TGI in the assay on KM12 colon is 16.9 µM and 5.14 µM; in the assay with CAKI-1 renal, 3.37 µM; with HS 578T breast it was 8.56 µM and 7.74 µM; in the assay on SK-MEL-2 melanoma, 8.11 µM and 2.2 µM; with SF-295 CNS, 20.3 µM and 4.59 µM; with UO-31 renal, 4.31 µM and 1.99 µM. Besides, the TGI with IGROV1 ovarian is 3.91 µM and 1.44 µM; with OVCAR-5 ovarian it was 11.9 µM and 3.1 µM.

As to `N#Cc1ccc(C(=O)c2cnn(-c3ccc(F)cc3)c2N)cc1`, the GI50 in the assay on KM12 colon, with CAKI-1 renal, with HS 578T breast, in the assay with SK-MEL-2 melanoma, in the assay with SF-295 CNS and in the assay with UO-31 renal was more than 25 µM in each case. Also, the GI50 in the assay with IGROV1 ovarian and in the assay on OVCAR-5 ovarian was more than 25 µM in each case. Moreover, the TGI with KM12 colon, in the assay with CAKI-1 renal, with HS 578T breast, in the assay with SK-MEL-2 melanoma, in the assay with SF-295 CNS and in the assay on UO-31 renal was more than 25 µM in each case. Further, the TGI with IGROV1 ovarian and with OVCAR-5 ovarian was more than 25 µM each time.

As to `CC1OC(OC2C(O)C(OCCc3ccc(O)c(O)c3)OC(CO)C2OC(=O)/C=C/c2ccc(O)c(O)c2)C(O)C(O)C1O` (stereo not drawn), the GI50 was more than 100 µM with KM12 colon; 40 µM in the assay on CAKI-1 renal; more than 100 µM in the assay with HS 578T breast; more than 100 µM in the assay on SK-MEL-2 melanoma; 31.5 µM with SF-295 CNS; 23.7 µM in the assay with UO-31 renal. The GI50 is 47.6 µM in the assay with IGROV1 ovarian and 19.6 µM in the assay on OVCAR-5 ovarian. Moreover, the TGI with KM12 colon was more than 100 µM; in the assay with CAKI-1 renal, more than 100 µM; in the assay with HS 578T breast, more than 100 µM; in the assay on SK-MEL-2 melanoma, more than 100 µM; with SF-295 CNS, more than 100 µM; with UO-31 renal it was 57.6 µM. In addition, the values for the TGI with IGROV1 ovarian and with OVCAR-5 ovarian were more than 100 µM and 39 µM, respectively.

For the compound `CC[C@H](C)[C@H](NC(=O)[C@H]1CCCCN1C)C(=O)N(C)[C@H](C[C@@H](OC(C)=O)c1nc(C(=O)NC23C4C5C2C2C3C4C52C(=O)OC)cs1)C(C)C` (stereo partly drawn), the GI50 is 0.00309 µM and 0.0025 µM with KM12 colon; 0.016 µM in the assay on CAKI-1 renal; 0.000754 µM and 0.0025 µM in the assay on HS 578T breast; 0.00185 µM and 0.0025 µM in the assay on SK-MEL-2 melanoma; 0.00253 µM and 0.0025 µM in the assay on SF-295 CNS; 0.0358 µM and 0.0114 µM in the assay on UO-31 renal. Further, the GI50 with IGROV1 ovarian was 0.00242 µM and 0.0025 µM; in the assay on OVCAR-5 ovarian it was 0.0702 µM and 0.0707 µM. Moreover, the TGI with KM12 colon was more than 25 µM; in the assay on HS 578T breast it was more than 25 µM; in the assay on SK-MEL-2 melanoma it was 0.00452 µM; with SF-295 CNS, 0.0944 µM and 0.282 µM; with UO-31 renal it was more than 25 µM; in the assay with IGROV1 ovarian, 20.1 µM. For the same compound, the TGI with OVCAR-5 ovarian is more than 25 µM.

For the origin of these results see PubChem BioAssay (NCI).
